Values joined by “and” are separate entries in the source; they are usually repeats but may differ in a detail not shown here. Identical values can stand only once. “Also recorded” adds a separate entry of the source.
Experiments:
[1] = system: C57BL6 female mice; assay: Cumulus oocyte complex yield after PMSG superovulation, doxorubicin with or without NMN; assay type: in vivo; conditions: per mouse, single dose doxorubicin 10 mg/kg i.p. and/or NMN 2 g/L drinking water, 2 months post doxorubicin
Procedure: To assess oocyte yield, and mice were hormonally stimulated to superovulated by intraperitoneal injection with 7.5 IU/mL of Pregnant Mare's Serum Gonadotropin (PMSG) (Folligon; Intervet, Boxmeer, Holland) to stimulate follicular growth. After 44-46 hours, ovaries were collected in HEPES-buffered minimum essential medium (aMEM; […] Sigma Aldrich, St. Louis, Mo.) and 100 μM IBMX (Sigma Aldrich). […] NMN was delivered through addition to drinking water at 2 g/L, for a final dose of approximately 165 mg/kg. Administration of NMN began one day prior to doxorubicin administration. […] Ovaries were then punctured to release MI oocytes. In a separate cohort of animals, the same experiment was repeated using animals treated with the platinum based chemotherapy drug cisplatin. In FIG. 6 and Table 1, numbers of cumulus oocyte complexes are listed.

[2] = system: oocytes; assay: Meiotic progression (GVBD, PBE) of harvested oocytes, doxorubicin with or without NMN; assay type: in vivo, mice; conditions: doxorubicin and/or NMN
From the text: Once harvested from ovaries, oocytes were stored in IBMX media to prevent progression into meiosis.

[3] = system: C57BL6 female mice; assay: Cumulus oocyte complex yield after PMSG, cisplatin with or without NMN; assay type: in vivo; conditions: per mouse, single dose cisplatin 5 mg/kg i.p. and/or NMN 2 g/L drinking water, two months later
Procedure: (§1) To assess oocyte yield, and mice were hormonally stimulated to superovulated by intraperitoneal injection with 7.5 IU/mL of Pregnant Mare's Serum Gonadotropin (PMSG) (Folligon; Intervet, Boxmeer, Holland) to stimulate follicular growth. After 44-46 hours, ovaries were collected in HEPES-buffered minimum essential medium (aMEM; Gibco Life Technologies, Grand Island, N.Y.) supplemented with 50 µM of 3-isobuty-1-methylxanthine (IBMX) (Sigma aldrich, NSW, AU) (M2 medium) to maintain meitotic arrest at germinal vesicle stage. Cumulus oocyte complexes (COCs) were isolated from preovulatory follicles using a 27-gauge needle and collected using flame-pulled borosilicate Pasteur pipettes in M2 medium supplemented with 3 mg/ml bovine serum albumin (BSA; Sigma Aldrich, St. Louis, Mo.) and 100 μM IBMX (Sigma Aldrich). Cumulus oocyte complexes (COCs) were mechanically denuded of cumulus cells by pipetting, and the denuded oocytes were transferred to another dish containing a drop of fresh M2-medium plus IBMX on heat block with 37° C. with lid to protect oocytes from light. […]

[4] = system: C57BL6 and SwissTacAusb female mice; assay: Oocyte yield in aged mice treated with NMN; assay type: in vivo; conditions: 15 month-old mice, NMN drinking water 2 g/L, 4 weeks, versus untreated
Procedure: as §1, with “Aldrich).” for “Aldrich). Cumulus oocyte complexes (COCs) were mechanically denuded of cumulus cells by pipetting, and the denuded oocytes were transferred to another dish containing a drop of fresh M2-medium plus IBMX on heat block with 37° C. with lid to protect oocytes from light.”
Systemic treatment with the NAD^+ precursor nicotinamide mononucleotide (NMN) increases intracellular NAD^+ levels, and we hypothesised that NMN treatment could restore the activity of SIRT2 to stabilise BubR1 and maintain oocyte reserve and competence into later ages. […] Animals were super-ovulated, and oocyte yield was assessed. […]

[5] = system: C57BL6 mice; assay: Breeding trial with NMN in drinking water; assay type: in vivo; conditions: NMN 2 g/L drinking water
From the text: FIG. 4. A) is a graph showing litter size. C57BL6 mice were maintained on normal drinking water supplemented with or without NMN (2 g/L) from 2 months of age. From 4 months of age, animals were timed mated with proven stud male C57BL6. Pregnancy was confirmed using micro-ultrasound for the presence of a foetal heartbeat, and the number of pups born in subsequent litters recorded. B) is a graph showing body weights of pups from breeding trials at 12 days of age.
To determine whether NMN treatment could improve overall, functional fertility, we conducted a breeding trial in C57BL6 mice. Both pregnancy success rates and litter size (FIG. 4A) were improved in animals that received NMN, further confirming the importance of this mechanism to female fertility. Offspring from females that received NMN treatment developed at a similar rate to offspring from untreated females, even after challenging with high fat feeding (FIG. 5A and 5B).

[6] = system: oocytes / blastocysts; assay: IVF of oocytes from 8 month old NMN treated mice: blastocyst formation and inner cell mass; assay type: in vivo
Procedure: In addition, the length of treatment with NAD raising compounds (e.g. NMN) positively correlates with improved fertility. Eight month old ex-breeder C57BL6 female mice, which are at an age of declining natural fertility, were treated with NMN through addition to drinking water (2 g/L) for 48 hours, 1 week, 2 weeks, and 4 weeks (6 per group). Animals were then treated with PMSG and then hCG to promote oocyte maturation and ovulation. MII stage oocytes were collected from the oviduct, and fertilized in vitro. Oocytes were then cultured into blastocysts for the next 6 days, at which point these blastocysts were subjected to differential staining to assess blastocyst cell number in either the inner cell mass or the trophectoderm. Inner cell mass cell number is accepted as an important predictor of implantation success rates.
This was measured through performing IVF in oocytes obtained from 8 month old C57BL6 ex-breeder female mice, which were assigned to the following 4 groups (6 per group) . . . • Daily oral gavage, saline control, normal drinking water • Daily oral gavage, 10 mg NMN in saline, normal drinking water • No gavage, normal (control) drinking water • No gavage, NMN in drinking water (2 g/L)
These animals were at an age at which fertility normally declines in this species. Animals were maintained on each of the above treatments for 10 days. Animals were then treated with PMSG and then hCG to promote oocyte maturation and ovulation. MII stage oocytes were collected from the oviduct, and fertilized in vitro. Oocytes were then cultured into blastocysts for the next 6 days, and blastocyst formation rates were assessed. Results at days 5 and six are shown in FIGS. 38 and 39, respectively. Blastocyst formation and hatching were assessed as indicators of developmental competence. Blastocyst formation is a clinically relevant outcome: during clinical IVF, blastocyst stage and hatching blastocyst stage embryos are preferentially transferred over earlier stage embryos into a person wishing to obtain a pregnancy.

For `NC(=O)c1ccc[n+]([C@@H]2O[C@H](COP(=O)([O-])O)[C@@H](O)[C@H]2O)c1` [NMN, nicotinamide mononucleotide], the “Numbers of cumulus oocyte complexes released from mice” value [1] was “able to protect against doxorubicin induced oocyte loss and 33 and 17 and 15 and 10 and 18 and 13”, the “Proportion of harvested oocytes achieving germinal vesicle breakdown” value ([2]; 1 h after release from IBMX) was 17 % of total and the “Proportion of harvested oocytes achieving germinal vesicle breakdown” value ([2]; 2 h after release from IBMX) was 67 % of total. The “Proportions of oocytes achieving polar body extrusion” value (from here on “Proportions”) ([2]; 14 hr following GVBD) was 79, the “Proportions” value ([2]; 16 hr following GVBD) was 50 and the “Proportions” value ([2]; 20 hr following GVBD) was 80. For the same compound, the “Numbers of cumulus oocyte complexes released from mice” value [3] was “completely rescued and 16 and 14 and 17 and 12 and 13 and 11”, the “COC (oocyte) yield in aged females” value [4] was “more than doubled; also recorded: dramatically increased” and the Litter size [5] was “improved”. For the same compound, the Pregnancy success rates [5] was “improved”, the “Efficacy on blastocyst formation after IVF: drinking water versus single daily oral gavage” value ([6]; 8 month old C57BL6, NMN 2 g/L drinking water versus 10 mg daily gavage, 10 days) was “better efficacy” and the “Efficacy versus length of NMN administration (inner cell mass cell number of blastocysts)” value ([6]; NMN 2 g/L drinking water for 48 hours, 1, 2, 4 weeks) was “time dependent increase in efficacy”. The “Ability of oocytes to form blastocysts following fertilisation in vitro” value ([6]; oocytes from NMN treated versus untreated mice) was “enhanced ability to form blastocysts”.

Reference: patent publication US20200368198A1, “METHODS FOR INCREASING FERTILITY” (NEWSOUTH INNOVATIONS PTY LIMITED, priority 2017, published 2020)
